Test results reported in US10952999B2, “Inhibitor of cyclin-dependent kinase CDK9” (GENFLEET THERAPEUTICS (SHANGHAI) INC., priority 2017, dated 2021).

What was measured:
Test in all cases: Cancer cell growth, Cell Titer-Glo cell viability assay, 72 hours
Type in all cases: cell-based
[1] = system: acute myeloid leukemia cell line HL-60; details: HL-60, 72 hours
Description: (§1) In the examples, we used acute myelocytic leukemia (AML) OCI-AML-3, acute promyelocytic leukemia cell line NB-4, MDS-RAEB (myelodysplastic syndrome-excess blasts type) cell line SKM-1, human leukemia cell Nomo-1, acute myeloid leukemia cell line MOLM14, acute myeloid leukemia cell line MOLM13, acute myeloid leukemia cell line MV4-11, acute myeloid leukemia cell line HL-60, acute myeloid leukemia cell line OCI-AML-2, histiocytic lymphoma U-937, acute B cell leukemia cell line MEC-1, acute B cell leukemia cell line MEC-2, acute megakaryoblastic leukemia CMK, hamster lung cell CHL, hamster ovary cell CHO, human non-small cell lung cancer cell H1975, human non-small cell lung cancer cell H358, human small cell lung cancer cell H209, human lung adenocarcinoma cell H1395, human non-small cell lung cancer cell PC-9, human lung cancer cell H3122, human non-small cell lung cancer cell H2122, human non-small cell lung cancer cell H1915, human lung adenocarcinoma cell H1355, human non-small cell lung cancer cell HCC827, human breast cancer cell MDA-MB-231, human breast cancer cell MDA-MB-468, human breast cancer cell MCF-7, human breast cancer cell T47D, human breast cancer cell SK-Br-3, the above cells were purchased from ATCC.
(§2) Cell Titer-Glo® (Promega, USA) chemical self-luminescence cell viability assay kit was used to detect the number of viable cells by quantitatively measuring ATP in living cells, according to which to calculate GI50 and IC50.

[2] = system: acute myeloid leukemia cell line MOLM14; details: MOLM-14, 72 hours
Description: as §1, §2

[3] = system: acute B cell leukemia cell line MEC-1; details: MEC-1, 72 hours
Description: as §1, §2

[4] = system: acute myelocytic leukemia (AML) OCI-AML-3; details: OCI-AML3, 72 hours
Description: as §1, §2

[5] = system: acute B cell leukemia cell line MEC-2; details: MEC-2, 72 hours
Description: as §1, §2

[6] = system: hamster ovary cell CHO; details: for GI50: CHO, 72 hours
Description: as §1, §2

[7] = system: human leukemia cell Nomo-1; details: Nomo-1, 72 hours
Description: as §1, §2

[8] = system: hamster lung cell CHL; details: for GI50: CHL, 72 hours
Description: as §1, §2

[9] = system: histiocytic lymphoma U-937; details: U-937, 72 hours
Description: as §1, §2

[10] = system: acute myeloid leukemia cell line MV4-11; details: MV4-11, 72 hours
Description: as §1, §2

[11] = system: acute myeloid leukemia cell line MOLM13; details: MOLM-13, 72 hours
Description: as §1, §2

[12] = system: MDS-RAEB (myelodysplastic syndrome-excess blasts type) cell line SKM-1; details: SKM-1, 72 hours
Description: as §1, §2

[13] = system: acute megakaryoblastic leukemia CMK
Description: as §1, §2

[14] = system: acute myeloid leukemia cell line OCI-AML-2; details: OCI-AML2, 72 hours
Description: as §1, §2

[15] = system: acute promyelocytic leukemia cell line NB-4; details: NB4, 72 hours
Description: as §1, §2

[16] = system: human small cell lung cancer cell H209; details: NCI-H209, H209, 72 hours
Description: as §1, §2

[17] = system: human non-small cell lung cancer cell H358; details: NCI-H358, H358, 72 hours
Description: as §1, §2

[18] = system: human breast cancer cell MDA-MB-468; details: MDA-MB-468, 72 hours
Description: as §1, §2

[19] = system: human non-small cell lung cancer cell H1915; details: NCI-H1915, H1915, 72 hours
Description: as §1, §2

[20] = system: human non-small cell lung cancer cell HCC827; details: HCC827, 72 hours
Description: as §1, §2

[21] = system: human non-small cell lung cancer cell H1975; details: NCI-H1975, H1975, 72 hours
Description: as §1, §2

[22] = system: human lung cancer cell H3122; details: NCI-H3122, H3122, 72 hours
Description: as §1, §2

[23] = system: human breast cancer cell MDA-MB-231; details: MDA-MB-231, 72 hours
Description: as §1, §2

[24] = system: human breast cancer cell MCF-7; details: MCF7, MCF-7, 72 hours
Description: as §1, §2

[25] = system: human lung adenocarcinoma cell H1395; details: NCI-H1395, H1395, 72 hours
Description: as §1, §2

[26] = system: human non-small cell lung cancer cell H2122; details: NCI-H2122, H2122, 72 hours
Description: as §1, §2

[27] = system: human non-small cell lung cancer cell PC-9; details: PC-9, 72 hours
Description: as §1, §2

[28] = system: human lung adenocarcinoma cell H1355; details: NCI-H1355, H1355, 72 hours
Description: as §1, §2

[29] = system: human breast cancer cell T47D
Description: as §1, §2

[30] = system: human breast cancer cell SK-Br-3; details: SK-Br-3, 72 hours
Description: as §1, §2

Row | Structure (SMILES) | GI50 ([1]; Homo sapiens) | GI50 ([2]; Homo sapiens) | GI50 ([3]; Homo sapiens, MEC1) | GI50 ([4]; Homo sapiens, OCI-AML-3) | GI50 ([5]; MEC2) | GI50 [6] | GI50 ([7]; Homo sapiens) | GI50 [8] | GI50 ([9]; Homo sapiens) | GI50 ([10]; Homo sapiens) | GI50 ([11]; Homo sapiens) | GI50 ([12]; Homo sapiens) | GI50 [13] | GI50 ([14]; Homo sapiens) | GI50 [15] | further results
1 | COCCN[C@H]1CC[C@H](Nc2cc(-c3csc(NCc4ccccc4)n3)c(Cl)cn2)CC1 [Compound 11, (1r,4r)-N^1-(4-(2-(benzylamino)thiazol-4-yl)-5-chloropyridin-2-yl)-N^4-(2-methoxyethyl)cyclohexane-1,4-diamine] | 73 nM | 160 nM | 470 nM | 220 nM | 320 nM | 370 nM | 960 nM | 1000 nM | 220 nM | 330 nM | 280 nM | 170 nM | 470 nM | 330 nM | 270 nM | 
2 | COCCN[C@H]1CC[C@H](Nc2cc(-c3csc(NCc4ccc(F)cc4)n3)c(Cl)cn2)CC1 [Compound 12, (1r,4r)-N^1-(5-chloro-4-(2-((4-fluorobenzyl)amino)thiazol-4-yl)pyridin-2-yl)-N^4-(2-methoxyethyl)cyclohexane-1,4-diamine] | 190 nM | 310 nM | 450 nM | 390 nM | 480 nM | 470 nM | 920 nM | 1100 nM | 390 nM | 880 nM | 290 nM | 200 nM | 720 nM | 410 nM | 410 nM | 
3 | COCCN[C@H]1CC[C@H](Nc2cc(-c3csc(NCC4CC4)n3)c(Cl)cn2)CC1 [Compound 13, (1r,4r)-N^1-(5-chloro-4-(2-((cyclopropylmethyl)amino)thiazol-4-yl)pyridin-2-yl)-N^4-(2-methoxyethyl)cyclohexane-1,4-diamine] | 320 nM | 330 nM | 890 nM | 420 nM | 660 nM | 770 nM | 870 nM | 1400 nM | 320 nM | 740 nM | 440 nM | 260 nM | 1100 nM | 600 nM | 340 nM | 
4 | COCCN[C@H]1CC[C@H](Nc2cc(-c3csc(OCC4CCOCC4)n3)c(Cl)cn2)CC1 [Compound 16, (1r,4r)-N^1-(5-chloro-4-(2-((tetrahydro-2H-pyran-4-yl)methoxy)thiazol-4-yl)pyridin-2-yl)-N^4-(2-methoxyethyl)cyclohexane-1,4-diamine] | 450 nM | 620 nM | 1400 nM | 630 nM | 970 nM | 1300 nM | 1500 nM | 3300 nM | 600 nM | 630 nM | 570 nM | 500 nM | 1400 nM | 2100 nM | 580 nM | 
5 | COCCN[C@H]1CC[C@H](Nc2cc(-c3csc(SCC4CCOCC4)n3)c(Cl)cn2)CC1 [Compound 17, (1r, 4r)-N^1-(5-chloro-4-(2-(((tetrahydro-2H-pyran-4-yl)methyl)mercapto)thiazol-4-yl)pyridin-2-yl)-N^4-(2-methoxyethyl)cyclohexane-1,4-diamine] |  |  |  |  |  | 610 nM |  | 5600 nM |  |  |  |  | 1100 nM |  | 350 nM | GI50 [1]: 160 nM; GI50 [2]: 360 nM; GI50 [3]: 800 nM; GI50 [4]: 980 nM; GI50 [5]: 700 nM; GI50 [7]: 930 nM; GI50 [9]: 300 nM; GI50 [10]: 1100 nM; GI50 [11]: 340 nM; GI50 [12]: 330 nM; GI50 [14]: 800 nM
6 | COCCN[C@H]1CC[C@H](Nc2cc(-c3csc(NCC4CCOCC4)n3)ccn2)CC1 [Compound 18, (1r,4r)-N^1-(2-methoxyethyl)-N^4-(4-(2-(((tetrahydro-2H-pyran-4-yl)methyl)amino)thiazol-4-yl)pyridin-2-yl)cyclohexane-1,4-diamine] | 980 nM | 1200 nM | 2500 nM | 2100 nM | 1700 nM | 4100 nM | 3000 nM | 1200 nM | 1100 nM | 910 nM | 1200 nM | 1100 nM | 4000 nM | 1100 nM | 1300 nM | 
7 | CCc1cnn2c(NCc3ccc[n+]([O-])c3)cc(N3CCCC[C@H]3CCO)nc12 [Dinaciclib, reference compound] | 8 nM | 4.5 nM | 11 nM | 11 nM | 10 nM | 160 nM | 34 nM | 180 nM | 3.6 nM | 7.6 nM | 3.3 nM | 10 nM | 9.9 nM | 13 nM | 10 nM | 
8 | NC1CCC(Nc2cc(-c3cccc(NCc4cccc(F)c4)n3)c(Cl)cn2)CC1 (centres unmarked) [HY-16462, reference compound] |  |  |  |  |  | 290 nM |  | 200 nM |  |  |  |  | 42 nM |  | 32 nM | GI50 [1]: 37 nM; GI50 [2]: 33 nM; GI50 [3]: 48 nM; GI50 [4]: 47 nM; GI50 [5]: 36 nM; inhibitory effect on normal cell CHO (in words) ([6]; CHO cells): certain inhibitory effects; GI50 [7]: 63 nM; inhibitory effect on normal cell CHL (in words) ([8]; CHL cells): certain inhibitory effects; GI50 [9]: 31 nM; GI50 [10]: 27 nM; GI50 [11]: 32 nM; GI50 [12]: 40 nM; GI50 [14]: 71 nM
9 | CC(=O)c1c(C)c2cnc(Nc3ccc(N4CCNCC4)cn3)nc2n(C2CCCC2)c1=O [Palbociclib, reference compound] |  |  |  |  |  |  |  |  |  |  |  |  |  |  |  | IC50 [16]: > 10000 nM; IC50 [17]: 6600 nM; IC50 [18]: 2700 nM; IC50 [19]: 3600 nM; IC50 [20]: > 10000 nM; IC50 [21]: > 10000 nM; IC50 [22]: 1200 nM; IC50 [23]: 5100 nM; IC50 [24]: 1700 nM; IC50 [25]: > 10000 nM; IC50 [26]: 1600 nM; IC50 [27]: > 10000 nM; IC50 [28]: ~10000 nM; IC50 [29]: 4100 nM; IC50 [30]: 3200 nM
